Experimental findings from patent US20190071416A1, “COMPOUNDS FOR TREATMENT OF CANCER AND EPIGENETICS” (Agency For Science, Technology and Research, priority 2015, published 2019) are described below.

This assay concerns the target T1, SMYD3 (Homo sapiens, UniProt Q9H7B4).
T1 sequence (Q9H7B4 1-428): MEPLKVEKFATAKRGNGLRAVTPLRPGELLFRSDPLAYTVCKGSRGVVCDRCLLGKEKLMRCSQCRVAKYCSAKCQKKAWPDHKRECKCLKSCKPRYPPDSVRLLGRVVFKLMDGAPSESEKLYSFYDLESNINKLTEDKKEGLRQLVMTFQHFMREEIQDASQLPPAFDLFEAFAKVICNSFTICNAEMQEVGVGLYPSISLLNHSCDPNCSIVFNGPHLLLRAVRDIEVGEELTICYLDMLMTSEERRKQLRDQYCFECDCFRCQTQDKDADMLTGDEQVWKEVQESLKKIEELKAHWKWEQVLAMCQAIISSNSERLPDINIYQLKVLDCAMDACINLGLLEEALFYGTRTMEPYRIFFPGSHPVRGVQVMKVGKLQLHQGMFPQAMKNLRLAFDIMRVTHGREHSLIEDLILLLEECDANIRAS
Kind of assay: SMYD3 biochemical assay (MTase-Glo, MAP3K2 peptide substrate). The settings on record: Table 3; MTase assay, MAP3K2 peptide substrate; read-out: IC50. The procedure, abridged:
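Luminescent readout of SAH production (coupled SAH→ATP conversion, MTase-Glo) after SMYD3 reacted 30 min at room temperature with 1.0 µM SAM and 10 µM MAP3K2 peptide, both final. Non-linear regression gave IC50 values.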
`CCCOC(=O)N1CCN(C(=O)c2ccc3c(Cl)cc(-c4ccc(F)c(OC)c4)nc3c2)C[C@H]1C` [B088, Propyl (R)-4-(4-chloro-2-(4-fluoro-3-methoxyphenyl)quinoline-7-carbonyl)-2-methylpiperazine-1-carboxylate]: the IC50 came out at 14 nM. With `CCCOC(=O)N1CCN(C(=O)c2ccc3c(Cl)cc(-c4ccc(-n5ccnc5)cc4)nc3c2)C[C@H]1C` [B089, Propyl (R)-4-(2-(4-(1H-imidazol-1-yl)phenyl)-4-chloroquinoline-7-carbonyl)-2-methylpiperazine-1-carboxylate], the IC50 was 65 nM.

For `CCCOC(=O)N1CCN(C(=O)c2ccc3c(Cl)cc(-c4ccc(N5CCOCC5)cc4)nc3c2)C[C@H]1C` [B090, Propyl (R)-4-(4-chloro-2-(4-morpholinophenyl)quinoline-7-carbonyl)-2-methylpiperazine-1-carboxylate], the IC50 was 77 nM.

Turning to `CCCOC(=O)N1CCN(C(=O)c2ccc3c(Cl)cc(-c4ccnn4C)nc3c2)[C@@H](C)C1` [B091, Propyl (S)-4-(4-chloro-2-(1-methyl-1H-pyrazol-5-yl)quinoline-7-carbonyl)-3-methylpiperazine-1-carboxylate], the IC50 amounted to 7500 nM.

Consider `CCCOC(=O)N1CCN(C(=O)c2ccc3c(Cl)c(C)c(-c4ccc(C(N)=O)cc4)nc3c2)CC1` [B092, Propyl 4-(2-(4-carbamoylphenyl)-4-chloro-3-methylquinoline-7-carbonyl)piperazine-1-carboxylate], for which the IC50 was determined as 250 nM. Take `CCCOC(=O)N1CCN(C(=O)c2ccc3c(Cl)c(C)c(-c4ccc(CN)cc4)nc3c2)CC1` [B093, Propyl 4-(2-(4-(aminomethyl)phenyl)-4-chloro-3-methylquinoline-7-carbonyl)piperazine-1-carboxylate]: the IC50 came to 42 nM. With `CCCOC(=O)N1CCN(C(=O)c2ccc3c(Cl)cc(-c4ccc(S(=O)(=O)N(C)C)cc4)nc3c2)C[C@H]1C` [B094, Propyl (R)-4-(4-chloro-2-(4-(N,N-dimethylsulfamoyl)phenyl)quinoline-7-carbonyl)-2-methylpiperazine-1-carboxylate] the figure was 610 nM; with `CCCOC(=O)N1CCN(C(=O)c2ccc3c(Cl)cc(-c4ccc(N5CCN(C)CC5)cc4)nc3c2)C[C@H]1C` [B095, Propyl (R)-4-(4-chloro-2-(4-(4-methylpiperazin-1-yl)phenyl)quinoline-7-carbonyl)-2-methylpiperazine-1-carboxylate], 56 nM; with `CCCOC(=O)N1CCN(C(=O)c2ccc3c(Cl)cc(-c4cccc(-n5cnnc5)c4)nc3c2)C[C@H]1C` [B096, Propyl (R)-4-(2-(3-(4H-1,2,4-triazol-4-yl)phenyl)-4-chloroquinoline-7-carbonyl)-2-methylpiperazine-1-carboxylate], 310 nM. In the case of `CCCOC(=O)N1CCN(C(=O)c2ccc3c(Cl)cc(-c4ccc(OC)c(CN)c4)nc3c2)CC1` [B097, Propyl 4-(2-(3-(aminomethyl)-4-methoxyphenyl)-4-chloroquinoline-7-carbonyl)piperazine-1-carboxylate], the IC50 came out at 110 nM. With `CCCOC(=O)N1CCN(C(=O)c2ccc3c(Cl)cc(-c4ccc(CN(C)C)cc4)nc3c2)C[C@H]1C` [B098, Propyl (R)-4-(4-chloro-2-(4-((dimethylamino)methyl)phenyl)quinoline-7-carbonyl)-2-methylpiperazine-1-carboxylate], the IC50 stood at 130 nM. `CCCOC(=O)N1CCN(C(=O)c2ccc3c(Cl)cc(-c4ccc(OC)c(C)c4)nc3c2)CC1` [B099, Propyl 4-(4-chloro-2-(4-methoxy-3-methylphenyl)quinoline-7-carbonyl)piperazine-1-carboxylate]: the IC50 was 350 nM. As for `CCCOC(=O)N1CCN(C(=O)c2ccc3c(Cl)cc(-c4ccc(OC)c(CO)c4)nc3c2)CC1` [B100, Propyl 4-(4-chloro-2-(3-(hydroxymethyl)-4-methoxyphenyl)quinoline-7-carbonyl)piperazine-1-carboxylate], the IC50 stood at 110 nM.

As to `CCCOC(=O)N1CCN(C(=O)c2ccc3c(Cl)cc(-c4ccc(C#N)c(C)c4)nc3c2)CC1` [B101, Propyl 4-(4-chloro-2-(4-cyano-3-methylphenyl)quinoline-7-carbonyl)piperazine-1-carboxylate], the IC50 was found to be 1800 nM.

Regarding `CCCOC(=O)N1CCN(C(=O)c2ccc3c(Cl)cc(-c4cccc(C(=O)N(C)C)c4)nc3c2)CC1` [B102, Propyl 4-(4-chloro-2-(3-(dimethylcarbamoyl)phenyl)quinoline-7-carbonyl)piperazine-1-carboxylate], the IC50 amounted to 530 nM. `CCCOC(=O)N1CCN(C(=O)c2ccc3c(Cl)cc(-c4ccc(S(N)(=O)=O)cc4)nc3c2)CC1` [B103, Propyl 4-(4-chloro-2-(4-sulfamoylphenyl)quinoline-7-carbonyl)piperazine-1-carboxylate]: the IC50 stood at 130 nM. `CCCOC(=O)N1CCN(C(=O)c2ccc3c(Cl)cc(-c4ccc(OC)c(CN(C)C)c4)nc3c2)CC1` [B104, Propyl 4-(4-chloro-2-(3-((dimethylamino)methyl)-4-methoxyphenyl)quinoline-7-carbonyl)piperazine-1-carboxylate]: the IC50 stood at 120 nM. As for `CCCOC(=O)N1CCN(C(=O)c2ccc3c(Cl)cc(-c4cccc(CN5CCOCC5)c4)nc3c2)CC1` [B105, Propyl 4-(4-chloro-2-(3-(morpholinomethyl)phenyl)quinoline-7-carbonyl)piperazine-1-carboxylate], the IC50 was 860 nM. For `CCCOC(=O)N1CCN(C(=O)c2ccc3c(Cl)cc(-c4ccc(OC)c(C#N)c4)nc3c2)C[C@H]1C` [B106, Propyl (R)-4-(4-chloro-2-(3-cyano-4-methoxyphenyl)quinoline-7-carbonyl)-2-methylpiperazine-1-carboxylate] the value was 560 nM; for `CCCOC(=O)N1CCN(C(=O)c2ccc3c(Cl)cc(-c4ccc(OC)c(CN)c4)nc3c2)C[C@H]1C` [B107, Propyl (R)-4-(2-(3-(aminomethyl)-4-methoxyphenyl)-4-chloroquinoline-7-carbonyl)-2-methylpiperazine-1-carboxylate], 76 nM; for `CCCOC(=O)N1CCN(C(=O)c2ccc3c(Cl)cc(-c4ccc(CN)c(C)c4)nc3c2)CC1` [B108, Propyl 4-(2-(4-(aminomethyl)-3-methylphenyl)-4-chloroquinoline-7-carbonyl)piperazine-1-carboxylate], 120 nM.

With `CCCOC(=O)N1CCN(C(=O)c2ccc3c(Cl)cc(C4(C)CC4)nc3c2)C[C@H]1C` [B109, Propyl (R)-4-(4-chloro-2-(1-methylcyclopropyl)quinoline-7-carbonyl)-2-methylpiperazine-1-carboxylate], the IC50 stood at 380 nM. On to `CCCOC(=O)N1CCN(C(=O)c2ccc3c(Cl)cc(-c4ccc(CN(C)C)cc4)nc3c2)CC1` [B110, Propyl 4-(4-chloro-2-(4-((dimethylamino)methyl)phenyl)quinoline-7-carbonyl)piperazine-1-carboxylate], for which the IC50 came out at 160 nM. As to `CCCOC(=O)N1CCN(C(=O)c2ccc3c(Cl)cc(-c4cccc(CN(C)C)c4)nc3c2)C[C@H]1C` [B111, Propyl (R)-4-(4-chloro-2-(3-((dimethylamino)methyl)phenyl)quinoline-7-carbonyl)-2-methylpiperazine-1-carboxylate], the IC50 was found to be 220 nM. For the compound `CCCOC(=O)N1CCN(C(=O)c2ccc3c(Cl)cc(-c4cccc(CN(C)C)c4)nc3c2)CC1` [B112, Propyl 4-(4-chloro-2-(3-((dimethylamino)methyl)phenyl)quinoline-7-carbonyl)piperazine-1-carboxylate], the IC50 was determined as 140 nM. For `CCCOC(=O)N1CCN(C(=O)c2ccc3c(Cl)c(C)c(-c4ccc(C(N)=O)cc4)nc3c2)C[C@H]1C` [B113, Propyl (R)-4-(2-(4-carbamoylphenyl)-4-chloro-3-methylquinoline-7-carbonyl)-2-methylpiperazine-1-carboxylate] the value was 92 nM; for `CCCOC(=O)N1CCN(C(=O)c2ccc3c(Cl)c(C)c(-c4ccc(C#N)cc4)nc3c2)C[C@H]1C` [B114, Propyl (R)-4-(4-chloro-2-(4-cyanophenyl)-3-methylquinoline-7-carbonyl)-2-methylpiperazine-1-carboxylate], 420 nM; for `CCCOC(=O)N1CCN(C(=O)c2ccc3c(Cl)cc(-c4ccnc(C)c4)nc3c2)CC1` [B115, Propyl 4-(4-chloro-2-(2-methylpyridin-4-yl)quinoline-7-carbonyl)piperazine-1-carboxylate], 780 nM. As for `CCCOC(=O)N1CCN(C(=O)c2ccc3c(Cl)cc(-c4ccc(S(=O)(=O)NC)cc4)nc3c2)CC1` [B116, Propyl 4-(4-chloro-2-(4-(N-methylsulfamoyl)phenyl)quinoline-7-carbonyl)piperazine-1-carboxylate], the IC50 was 430 nM. Take `CCCOC(=O)N1CCN(C(=O)c2ccc3c(Cl)cc(-c4cccc(S(N)(=O)=O)c4)nc3c2)CC1` [B117, Propyl 4-(4-chloro-2-(3-sulfamoylphenyl)quinoline-7-carbonyl)piperazine-1-carboxylate]: the IC50 came to 920 nM.

For the compound `CCCOC(=O)N1CCN(C(=O)c2ccc3c(Cl)cc(-c4ccc(C(=O)NC)cc4)nc3c2)CC1` [B118, Propyl 4-(4-chloro-2-(4-(methylcarbamoyl)phenyl)quinoline-7-carbonyl)piperazine-1-carboxylate], the IC50 came to 250 nM.

In general, IC50 refers to the concentration needed to halve the response being measured.
